Data reported in paper PMC2762729 (Biochemistry, 2009).
Entries after “also recorded” stand apart in the source; their conditions may differ. Where two headings read alike, the source gives them in different places.

Tests used:
[1] = tested on: 35-mer synthetic SRL mimic with GAGA tetraloop; conditions: cited from earlier work
saporin-L1 [2] = assay type: biochemical, Saponaria officinalis
saporin-L1 [3] = biological target: T1, saporin-L1 (Saponaria officinalis, UniProt Q2QEH4); assay type: biochemical; conditions: read-out: EC50, rescue of translation; n = 3
T1 sequence (Q2QEH4 22-280 limits assumed): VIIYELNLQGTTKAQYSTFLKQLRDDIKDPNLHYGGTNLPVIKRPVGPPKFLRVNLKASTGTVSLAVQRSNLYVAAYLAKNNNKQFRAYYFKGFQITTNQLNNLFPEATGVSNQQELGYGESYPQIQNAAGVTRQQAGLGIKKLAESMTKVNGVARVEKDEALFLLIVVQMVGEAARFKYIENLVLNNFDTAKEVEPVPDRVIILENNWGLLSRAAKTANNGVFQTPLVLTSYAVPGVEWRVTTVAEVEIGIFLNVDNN

saporin-L1 [4] = biological target: T1, saporin-L1; experiment: Competitive inhibition of A-10 RNA
saporin-L1 [5] = assay type: biochemical, Saponaria officinalis; remark: listed apart in the source
saporin-L1 [6] = conditions: pH 7.8; cited from earlier work
saporin-L1 [7] = biological target: T1, saporin-L1; experiment: Competitive inhibition of A-10 RNA; remark: listed apart in the source

Compound: gelonin
- activity (in words) [1]: no detectable activity

Compound: Nc1ncnc2c(CN3C[C@H](CO)[C@@H](O)C3)c[nH]c12 [9-DA, 9-deazaadenine-9-methylene-N-hydroxypyrrolidine]
- inhibition of saporin-L1 (in words) (saporin-L1 [2]): not an inhibitor; also recorded: poor inhibitor
- Ki (saporin-L1 [2]; read-out: Ki (no slow onset observed)): > 500 µM

Compound: CO[C@@H]1[C@H](OP(=O)(O)OCCCO)[C@@H](COP(=O)(O)O[C@H]2CN(Cc3c[nH]c4c(N)ncnc34)C[C@@H]2COP(=O)(O)OCCCO)O[C@H]1n1cnc2c(=O)[nH]c(N)nc21 [s3(9-DA)Gs3 2′-OMe]
- EC50 (saporin-L1 [3]): 0.036 µM
- Ki (saporin-L1 [4]): 0.0064 ± 0.0017 µM

Compound: 5′-CGCGAGAGCG-3′ [A-10 RNA]
- Km, fold lower with saporin-L1 than with saporin-S6 (saporin-L1 [5]): 4 fold
- Km, fold tighter than poly(A) RNA (saporin-L1 [5]): 4.5 fold
- kcat/Km, fold increased catalytic efficiency over poly(A) RNA (saporin-L1 [5]): 45 fold
- kcat/Km, fold more efficient with saporin-L1 than with saporin-S6 (saporin-L1 [5]): 4,800 fold
- Km (saporin-L1 [5]; pH 7.7): 95 ± 7 µM
- kcat (saporin-L1 [5]; pH 7.7): 7.33 ± 0.267 s⁻¹

Compound: trichosanthin
- activity (in words) [1]: no detectable activity

Compound: poly(A)
- Km (saporin-L1 [6]): 639 ± 32 µM
- kcat (saporin-L1 [6]): 1.02 ± 0.017 s⁻¹

Compound: Nc1ncnc2c(CN3C[C@H](CO)[C@@H](O)C3)c[nH]c12 [9-DA, 9-deazaadenine-9-methylene-N-hydroxypyrrolidine (DADMeA)]
- Ki (saporin-L1 [7]): > 500 µM
